biological target: BTK (Homo sapiens, UniProt Q06187); experiment: biochemical; conditions: read-out: BTK inhibition (%)
Sequence (Q06187 402-655 limits assumed): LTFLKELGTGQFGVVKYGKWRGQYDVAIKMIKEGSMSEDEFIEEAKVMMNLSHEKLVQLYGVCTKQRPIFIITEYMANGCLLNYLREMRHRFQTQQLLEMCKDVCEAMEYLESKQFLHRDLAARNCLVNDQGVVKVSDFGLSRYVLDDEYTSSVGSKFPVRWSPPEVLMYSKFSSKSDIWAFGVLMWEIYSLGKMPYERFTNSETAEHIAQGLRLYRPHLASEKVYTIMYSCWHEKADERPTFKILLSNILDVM

SMILES | inhibition at 10 µM
C[C@]12C=CC(=O)C=C1CC[C@@H]1[C@@H]2CC[C@@]2(C)[C@H]1CC[C@]2(C)O [PCM-0215063] | -11.7%
COc1cc(OC)c(OC)cc1C=O [PCM-0091340] | -12.4%

same assay, conditions: read-out: BTK inhibition (%), 0.75 uM BTK, […] probe 3l, 15 min preincubation

SMILES | inhibition at 10 µM
CO[C@H]1C[C@H](O[C@H]2[C@H](C)O[C@@H](O[C@@H]3/C(C)=C/C[C@@H]4C[C@@H](C[C@]5(C=C[C@H](C)[C@@H](C6CCCCC6)O5)O4)OC(=O)[C@@H]4C=C(C)[C@@H](O)[C@H]5OC/C(=C\C=C\[C@@H]3C)[C@]54O)C[C@@H]2OC)O[C@@H](C)[C@@H]1O [PCM-0215971] | 44%
NC1(Cc2ccc(Cl)cc2)CCN(c2ncnc3[nH]ccc23)CC1 [PCM-0095516] | 13.8%
Cc1cc2c3c([n+](C)c4ccc(F)cc4c3c1)-c1cc(F)ccc1N2C [PCM-0215703] | 13.1%
CN(C)[C@@H]1C(=O)C(C(N)=O)=C(O)[C@@]2(O)C(=O)C3=C(O)c4c(O)cccc4[C@@](C)(O)[C@H]3C[C@@H]12 [PCM-0085873] | 6.2%
CC(C)=CC[C@@H](O)C1=CC(=O)c2c(O)ccc(O)c2C1=O [PCM-0215694] | 69.7%
NC(=O)c1cccc2[nH]c(-c3ccc([C@@H]4CCCN4)cc3F)nc12 [PCM-0214633] | 17.1%
CCCCC[C@H](O)/C=C/[C@H]1[C@H](O)CC(=O)[C@@H]1C/C=C\CCCC(=O)O [PCM-0215185] | -11.7%
Cc1cc(C)c(CN2CCc3c(Cl)cc(-c4c(C)noc4C)c(Cl)c3C2=O)c(=O)[nH]1 [PCM-0215872] | -8.5%
N[C@@H]1CN(c2c(F)cc3c(=O)c(C(=O)O)cn([C@@H]4C[C@@H]4F)c3c2Cl)CC12CC2 [PCM-0095203] | -6.8%
COc1cc2c(N3CCN(C(=O)Nc4ccc(OC(C)C)cc4)CC3)ncnc2cc1OCCCN1CCCCC1 [PCM-0090254] | -17%
COC(=O)N[C@H](C(=O)N1CCC[C@H]1C(=O)Nc1ccc([C@@H]2CC[C@@H](c3ccc(NC(=O)[C@@H]4CCCN4C(=O)[C@@H](NC(=O)OC)C(C)C)cc3)N2c2ccc(C(C)(C)C)cc2)cc1)C(C)C [PCM-0216056] | 18.5%
C[C@@H]1C(=O)O[C@H]2C[C@@]34[C@H]5C[C@@H](C(C)(C)C)[C@]36[C@@H](OC(=O)[C@@H]6O)O[C@@]4(C(=O)O5)[C@]21O [PCM-0089814] | -7.8%
CC1=C(/C=C/C(C)=C/C=C/C(C)=C/C=C/C=C(C)/C=C/C=C(C)/C=C/C2=C(C)C(=O)[C@@H](O)CC2(C)C)C(C)(C)C[C@H](O)C1=O [PCM-0214960] | 16.6%
Cc1cc(F)c(Nc2ncnc3cc(OCc4ccccc4)ccc23)cc1O [PCM-0095349] | 46.9%
CC1(C)CC[C@]2(C(=O)O)CC[C@]3(CO)C(=CC[C@@H]4[C@@]5(C)C[C@H](O)[C@H](O[C@@H]6O[C@H](CO)[C@@H](O)[C@H](O)[C@H]6O)[C@@](C)(C(=O)O)[C@@H]5CC[C@]43C)[C@@H]2C1 [PCM-0216380] | 11.6%
O=C(CSc1nc2c(c(=O)n1-c1ccccc1)SCC2)Nc1ccc(-c2ccccc2)cn1 [PCM-0215278] | -8.5%
O=C(O)CC[C@@H](O)C(=O)O [PCM-0215516] | -13.6%
Cc1cn([C@H]2O[C@@H](CO)[C@H](O)[C@H]2F)c(=O)[nH]c1=O [PCM-0214737] | 23.3%
CCCCc1nc2cc(/C=C/C(=O)NO)ccc2n1CCN(CC)CC [PCM-0095187] | 9.7%
O=C(O)Cn1nnc(-c2cc(N3CCC(Oc4cc(F)ccc4Br)CC3)no2)n1 [PCM-0094989] | 4.1%
Cc1cccc(CN2CCN(C(c3ccccc3)c3ccc(Cl)cc3)CC2)c1 (centres unmarked) [PCM-0086087] | 67.2%

SMILES | inhibition at 10 µM
CCCCC[C@H](O)CC(=O)CCc1ccc(O)c(OC)c1 [PCM-0214961] | 1.6%
CN[C@@H]1[C@H](O[C@H]2[C@H](O[C@H]3[C@H](O)[C@@H](O)[C@H](N=C(N)N)[C@@H](O)[C@@H]3N=C(N)N)O[C@@H](C)[C@]2(O)C=O)O[C@@H](CO)[C@H](O)[C@H]1O [PCM-0215192] | -10.2%
CC1(C)[C@H]2CC[C@]1(C)[C@H](O)C2 [PCM-0215078] | -20.2%
CN(CC(=O)O)C(=N)N [PCM-0216212] | -30.6%
C[C@@H]1O[C@@H](O[C@H]2[C@H](O[C@H]3CC[C@@]4(C)[C@@H](CC[C@]5(C)[C@@H]4CC=C4[C@@H]6CC(C)(C)CC[C@]6(C(=O)O[C@@H]6O[C@H](CO[C@@H]7O[C@H](CO)[C@@H](O)[C@H](O)[C@H]7O)[C@@H](O)[C@H](O)[C@H]6O)CC[C@]45C)[C@]3(C)CO)OC[C@H](O)[C@@H]2O)[C@H](O)[C@H](O)[C@H]1O [PCM-0216342] | -25.5%
COC(=O)C1=CO[C@@H](O[C@@H]2O[C@H](CO)[C@@H](O)[C@H](O)[C@H]2O)[C@@H]2[C@H](C)O[C@@H](O)C[C@H]12 [PCM-0216177] | -19.3%
O=C(O)c1cc(=O)cc(C(=O)O)o1 [PCM-0216206] | -6.2%
COC(=O)C1=CO[C@@H](O[C@@H]2O[C@H](CO)[C@@H](O)[C@H](O)[C@H]2O)[C@@H]2C(CO)=C[C@H](O)[C@H]12 [PCM-0216324] | -7.7%
CN(C)c1cc(NC(=O)CNC(C)(C)C)c(O)c2c1C[C@H]1C[C@H]3[C@H](N(C)C)C(=O)C(C(N)=O)=C(O)[C@@]3(O)C(=O)C1=C2O [PCM-0214621] | 32.7%
CCCCCCCCCCCC[N+](C)(C)CCOc1ccccc1 [PCM-0214763] | -14.8%
CCNC(=O)c1noc(-c2cc(C(C)C)c(O)cc2O)c1-c1ccc(CN2CCOCC2)cc1 [PCM-0095017] | -0.7%
O=c1[nH]c(=O)n([C@H]2C[C@H](O)[C@@H](CO)O2)cc1/C=C/Br [PCM-0215082] | 7.7%
O=C(CCc1ccc(O)cc1)c1c(O)cc(O)cc1O[C@@H]1O[C@H](CO)[C@@H](O)[C@H](O)[C@H]1O [PCM-0089058] | 4.7%
C=C1[C@@H]2CC[C@@H](C2)[C@]1(C)CC/C=C(\C)CO [PCM-0216479] | 0%
O=C(O)c1cc(C(=O)O)c(C(=O)N(Cc2cccc(Oc3ccccc3)c2)[C@H]2CCCc3ccccc32)cc1C(=O)O [PCM-0215841] | 13.1%
Cc1cc(O)c2c(c1)C(=O)c1cccc(O)c1C2=O [PCM-0090919] | -4.8%
CC(C)(CO)n1cc(C(=O)c2cncc(NC(=O)Cc3ccc(Cl)cn3)c2)c2cnc(N)nc21 [PCM-0215853] | 5.5%
COc1cc(C(=O)N2CCC(N3CCN(C)CC3)CC2)ccc1Nc1ncc2c(n1)N(C)c1ccccc1C(=O)N2C [PCM-0215491] | 2.8%
COc1cc(CCc2cc(NC(=O)c3ccc(N4C[C@@H](C)N[C@@H](C)C4)cc3)n[nH]2)cc(OC)c1 [PCM-0095396] | 58.6%
CN1CCC(COc2cnc(-c3cccc(Cn4nc(-c5cccc(C#N)c5)ccc4=O)c3)nc2)CC1 [PCM-0215322] | 22.1%
Cc1nc(Nc2n[nH]c3c2CN(C(=O)N[C@H](CN(C)C)c2ccccc2)C3(C)C)c2sccc2n1 [PCM-0095819] | 72.4%

SMILES | inhibition at 10 µM
CC[C@H](c1ccc(O)cc1)[C@@H](CC)c1ccc(O)cc1 [PCM-0095223] | -11.7%
CN(C)CCc1c[nH]c2ccc(CS(=O)(=O)N3CCCC3)cc12 [PCM-0090415] | -0.8%
OC[C@H]1O[C@H](OC[C@H]2O[C@H](OC[C@H]3O[C@H](O[C@]4(CO)O[C@H](CO)[C@@H](O)[C@@H]4O)[C@H](O)[C@@H](O)[C@@H]3O)[C@H](O)[C@@H](O)[C@H]2O)[C@H](O)[C@@H](O)[C@H]1O [PCM-0216230] | 17.8%
CNC1CCCN(c2c(F)cc3c(=O)c(C(=O)O)cn(C4CC4)c3c2OC)C1 (centres unmarked) [PCM-0095230] | -5.4%
O=C(NC1(c2ccccc2)CC1)c1c(CN2CCC(N3CCCCC3)CC2)c(-c2cccc(C(F)(F)F)c2)nc2cc(Br)ccc12 [PCM-0215818] | 36.3%
COc1cc2c(cc1O)CC[C@@H]1[C@@H]2CC[C@]2(C)[C@@H](O)CC[C@@H]12 [PCM-0214607] | -2.8%
CN[C@H](CC(C)C)C(=O)N[C@H]1C(=O)N[C@@H](CC(N)=O)C(=O)N[C@H]2C(=O)N[C@H]3C(=O)N[C@H](C(=O)N[C@H](C(=O)O)c4cc(O)cc(O)c4-c4cc3ccc4O)[C@H](O)c3ccc(c(Cl)c3)Oc3cc2cc(c3O[C@@H]2O[C@H](CO)[C@@H](O)[C@H](O)[C@H]2O[C@H]2C[C@](C)(N)[C@H](O)[C@H](C)O2)Oc2ccc(cc2Cl)[C@H]1O [PCM-0064980] | 4.3%
CC(C)(C)C(=O)Nc1ccc2c(c1)C(=O)C(=O)c1ccccc1-2 [PCM-0215348] | 10.8%
Cc1ccc2c(c1)c1c(n2CCc2ccc(C)nc2)CCN(C)C1 [PCM-0095683] | 6.2%
NC(=NCCCCCCN=C(N)/N=C(\N)Nc1ccc(Cl)cc1)/N=C(\N)Nc1ccc(Cl)cc1 [PCM-0085888] | 3.1%
CCCCNc1cc(C(=O)O)cc(S(N)(=O)=O)c1Oc1ccccc1 [PCM-0064421] | -6.2%
COC(=O)c1c2c(c3ccccc3c1O)OC(C)(C)C=C2 [PCM-0216437] | -27%
O=C(O)C(Cl)Cl [PCM-0215858] | -8.5%
CCOC(=O)c1c(CSc2ccccc2)n(C)c2cc(Br)c(O)c(CN(C)C)c12 [PCM-0095296] | 10.1%
NC1(C(=O)N[C@@H](CCO)c2ccc(Cl)cc2)CCN(c2ncnc3[nH]ccc23)CC1 [PCM-0095607] | 33.1%
O=C(c1ccccc1)c1ccc2n1CCC2C(=O)O (centres unmarked) [PCM-0065461] | -11.7%
CCc1c2c(nc3ccc(O)cc13)-c1cc3c(c(=O)n1C2)COC(=O)[C@]3(O)CC [PCM-0091516] | -28.8%
NC[C@H]1O[C@H](O[C@H]2[C@H](O)[C@@H](O[C@H]3O[C@H](CO)[C@@H](O)[C@H](N)[C@H]3O)[C@H](N)C[C@@H]2N)[C@H](O)[C@@H](O)[C@@H]1O [PCM-0086137] | 23.8%
Cn1cnc([N+](=O)[O-])c1Sc1ncnc2nc[nH]c12 [PCM-0064491] | -4.8%
C[C@H]1CN(C[C@H](Cc2ccccc2)C(=O)NCC(=O)O)CC[C@@]1(C)c1cccc(O)c1 [PCM-0216566] | -13.1%
C=CC(=O)Nc1cccc(Sc2nc(Nc3ccc(N4CCN(C)CC4)cc3)ncc2Cl)c1 [PCM-0095052] | 95.9%

From article PMC8041284, “Tunable Methacrylamides for Covalent Ligand Directed Release Chemistry” (Journal of the American Chemical Society, 2021)
